From article PMC4176484, “Comparative study of four immortalized human brain capillary endothelial cell lines, hCMEC/D3, hBMEC, TY10, and BB19, and optimization of culture conditions, for an in vitro blood–brain barrier model for drug permeability studies” (Fluids and Barriers of the CNS, 2013)

Experiments:
[1] = Paracellular permeability (Papp) of marker compounds through hBMEC mono-cultures on 24-well inserts; type: in vitro ADME; details: human, mean ± S.E.M.
Method: (§1) To further assess tight junction (TJ) integrity of endothelial cell layers, paracellular permeabilities of Na-F (MW 376.27) and LY (MW 550.39) were measured. These two fluorescent, non-P-glycoprotein (P-gp) substrate molecules have low BBB penetration and are widely used as barrier integrity markers for in vitro models. To obtain comparative data, hCMEC/D3 cells, hBMEC cells, and TY10 cells were seeded onto 24-well tissue culture inserts (Greiner Bio-one®, transparent polyethylene terephthalate (PET) membrane, 3.0 μm pore size, 0.6 × 10^6 pores/cm^2) and incubated at 37°C (5% CO2) (except TY10 cells) inside the CellZscope cell module (Figure 2). For TY10, the CellZscope system was first put at 33°C (5% CO2) for 2 days and was thereafter transferred to 37°C (5% CO2) for 2 days prior to the permeability assay (Figure 3D). Cell seeding density for hCMEC/D3 and hBMEC was 6.0 × 10^4 cells/cm^2, and for TY10 it was 3.0 × 10^4 cells/cm^2. For hBMEC, contact co-culture models with SVG-A cells (9.0 × 10^4 cells/cm^2) or HBPCT cells (6.0 × 10^4 cells/cm^2) on the basal side of the coated filter membranes were tested.
TEER and CCL values before and after the assays were monitored continuously for integrity control. All experiments for Na-F permeability were carried out at the time indicated with a black arrow in Figures 3A-D. For LY permeability assessment, TEER values were in the same range (graphs not shown). […]
(§2) For the permeability assay, tissue culture inserts were transferred into a 24-well plate containing 700 μL of pre-warmed (37°C) Ringer HEPES buffer (150 mM NaCl, 2.2 mM CaCl2, 0.2 mM MgCl2, 5.2 mM KCl, 2.8 mM glucose, 5 mM HEPES, and 6 mM NaHCO3, pH 7.4) in each well (basolateral compartment). […] Quantification of fluorescence (Na-F: excitation 490 nm, emission 514 nm; LY: excitation 430 nm, emission 535 nm) was carried out using a Chameleon microplate reader (Hidex, Turku, Finland). The apparent permeability coefficient (Papp) for Na-F and LY was calculated in centimeters/second (cm/s) according to the equation: […]

[2] = Paracellular permeability (Papp) through hBMEC contact co-culture with HBPCT pericytes; type: in vitro ADME; details: human, mean ± S.E.M.
Method: (§3) To further assess tight junction (TJ) integrity of endothelial cell layers, paracellular permeabilities of Na-F (MW 376.27) and LY (MW 550.39) were measured. These two fluorescent, non-P-glycoprotein (P-gp) substrate molecules have low BBB penetration and are widely used as barrier integrity markers for in vitro models. To obtain comparative data, hCMEC/D3 cells, hBMEC cells, and TY10 cells were seeded onto 24-well tissue culture inserts (Greiner Bio-one®, transparent polyethylene terephthalate (PET) membrane, 3.0 μm pore size, 0.6 × 10^6 pores/cm^2) and incubated at 37°C (5% CO2) (except TY10 cells) inside the CellZscope cell module (Figure 2). […]
as §2

[3] = Paracellular permeability (Papp) of marker compounds through TY10 mono-cultures on 24-well inserts; type: in vitro ADME; details: human, pH 7.4, TY10 monolayers (33°C 2 days, then 37°C 2 days), Greiner Bio-one transparent PET 3.0 μm inserts, mean ± S.E.M.
Method: as §3
TEER and CCL values before and after the assays were monitored continuously for integrity control. […]
as §2

[4] = Recovery (mass balance) in permeability assays through hBMEC mono-cultures and contact co-cultures; type: in vitro ADME; details: human, pH 7.4; all hBMEC mono-culture / co-culture experiments with SVG-A or HBPCT
Method: as §3, §2
(§4) Recovery (mass balance) of Na-F and LY was calculated with the following equation: […]

[5] = Recovery (mass balance) in permeability assays through mono-cultures; type: in vitro ADME; details: human, pH 7.4; all mono-culture permeability experiments (hCMEC/D3, hBMEC, TY10)
Method: as §2, with “compartment). Medium in inserts (apical compartment) was then replaced with 300 μL of a pre-warmed (37°C) working solution containing Na-F or LY at 10 μg/mL in Ringer HEPES buffer. The 24-well plate was incubated at 37°C on an orbital shaker (ELMI DTS-2, Riga, Latvia) with moderate speed (100 rpm) and aliquots of 250 μL of both apical and basolateral compartments were collected after 1 h.” for “compartment).”
as §4
[43] where CAf and CBf are the final concentrations of the compound in the apical and basolateral compartment, respectively, CA0 is the initial concentration in the apical compartment, and VA and VB are the volumes in the apical and basolateral compartments, respectively. All results are expressed as means ± S.E.M.

[6] = Paracellular permeability (Papp) of marker compounds through hCMEC/D3 mono-cultures on 24-well inserts; type: in vitro ADME; details: human, Greiner Bio-one transparent PET 3.0 μm inserts, mean ± S.E.M.
Method: as §1
TEER and CCL values before and after the assays were monitored continuously for integrity control. All experiments for Na-F permeability were carried out at the time indicated with a black arrow in Figures 3A-D. For LY permeability assessment, TEER values were in the same range (graphs not shown). BB19 cells were not included in this permeability study since TEER values were extremely low.
For the permeability assay, tissue culture inserts were transferred into a 24-well plate containing 700 μL of pre-warmed (37°C) Ringer HEPES buffer (150 mM NaCl, 2.2 mM CaCl2, 0.2 mM MgCl2, 5.2 mM KCl, 2.8 mM glucose, 5 mM HEPES, and 6 mM NaHCO3, pH 7.4) in each well (basolateral compartment). Medium in inserts (apical compartment) was then replaced with 300 μL of a pre-warmed (37°C) working solution containing Na-F or LY at 10 μg/mL in Ringer HEPES buffer. The 24-well plate was incubated at 37°C on an orbital shaker (ELMI DTS-2, Riga, Latvia) with moderate speed (100 rpm) and aliquots of 250 μL of both apical and basolateral compartments were collected after 1 h. All experiments were performed at least in triplicate. Quantification of fluorescence (Na-F: excitation 490 nm, emission 514 nm; LY: excitation 430 nm, emission 535 nm) was carried out using a Chameleon microplate reader (Hidex, Turku, Finland). The apparent permeability coefficient (Papp) for Na-F and LY was calculated in centimeters/second (cm/s) according to the equation: […]

[7] = Paracellular permeability (Papp) through hBMEC contact co-culture with SVG-A astrocytes; type: in vitro ADME; details: human, mean ± S.E.M.
Method: as §3, §2

hBMEC mono-cultures = assay: Maximal TEER of hBMEC mono-cultures under different culture conditions, CellZscope; details: collagen type I coating
Method: For the screening of 24-well tissue culture inserts from different providers (Corning®, Greiner Bio-One®, BD Falcon®, Millipore®, Nunc®, and Brand®), each endothelial cell line (hCMEC/D3 (cultured with growth medium 20% FBS), hBMEC, TY10, and BB19) was seeded separately on the apical side of the filter membrane at a density varying between 1.5 × 10^4 and 17 × 10^4 cells/cm^2. Prior to seeding, the membranes were coated with rat-tail collagen type I. The tissue culture inserts were placed into a 24-well cell module of a CellZscope system (NanoAnalytics, Münster, Germany) [30] which was placed inside an incubator (37°C and 5% CO2). For in vitro models with TY10 cells, further experiments were performed for which the CellZscope system was first placed at 33°C (5% CO2) for 2 days and subsequently transferred to 37°C (5% CO2). The medium was refreshed every 2–4 days. TEER values were recorded in real-time every hour. TEER values for cell layers, expressed in Ωcm^2, were obtained by subtracting the TEER of a coated control insert without cells from a coated insert with cells. After placing the CellZscope system into the incubator, the cell module needs at least 6 h to reach 37°C. Since TEER values are highly temperature sensitive [36], recorded TEER values in this time period were not considered to be valid and are not reported. For each in vitro experiment, 2 or 3 replicates were measured. Results are expressed as means ± S.E.M. In addition to TEER values, the CellZscope system monitors the cell layer capacitance (CCL) which reflects the membrane surface area. CCL values in the range of 0.5-5.0 μF/cm^2 indicate cell confluency and validate TEER values [37, 38]. All reported TEER values in the result section belong to a CCL within this range, if not reported otherwise.

[8] = pH 7.4, hBMEC mono-culture, growth medium 20% FBS, Greiner Bio-one transparent PET 3.0 μm inserts, 10 μg/mL apical, 1 h, 37°C
[9] = pH 7.4, hCMEC/D3 cultivated with growth medium containing 20% FBS
[10] = pH 7.4, hCMEC/D3 grown with initial medium containing 5% FBS

Compound: O=C([O-])c1ccccc1-c1c2ccc(=O)cc-2oc2cc([O-])ccc12.[Na+].[Na+] [Na-F, sodium fluorescein]
- Papp at 1 h, 10 μg/mL [1, 8]: 5.08 ± 0.22 ×10⁻⁶ cm/s
- Papp at 1 h, 10 μg/mL ([1]; pH 7.4, hBMEC monolayers cultured without growth factors, n = 3): 5.11 ± 0.0487 ×10⁻⁶ cm/s
- Papp at 1 h, 10 μg/mL ([2]; pH 7.4, hBMEC co-cultured with HBPCT, medium deprived of growth factors, n = 3): 7.22 ± 0.455 ×10⁻⁶ cm/s
- Papp at 1 h, 10 μg/mL ([2]; pH 7.4, hBMEC contact co-culture with HBPCT, medium with growth factors): 8.26 ± 0.893 ×10⁻⁶ cm/s
- Papp at 1 h, 10 μg/mL [3]: 12.4 ± 0.155 ×10⁻⁶ cm/s
- recovery at 1 h, 10 μg/mL [4]: 98 to 102%
- recovery at 1 h, 10 μg/mL [5]: 75 to 87%
- Papp at 1 h, 10 μg/mL [6, 9]: 13.4 ± 0.484 ×10⁻⁶ cm/s
- Papp at 1 h, 10 μg/mL [6, 10]: 12.5 ± 0.326 ×10⁻⁶ cm/s
- Papp at 1 h, 10 μg/mL ([7]; pH 7.4, hBMEC co-cultured with SVG-A, medium deprived of growth factors, n = 3): 6.88 ± 0.516 ×10⁻⁶ cm/s
- Papp at 1 h, 10 μg/mL ([7]; pH 7.4, hBMEC contact co-culture with SVG-A, medium with growth factors): 7.43 ± 0.2 ×10⁻⁶ cm/s

Compound: C=CS(=O)(=O)c1cccc(N2C(=O)c3cc(S(=O)(=O)[O-])cc4c(N)c(S(=O)(=O)[O-])cc(c34)C2=O)c1.[Li+].[Li+] [LY, Lucifer Yellow VS dilithium salt]
- Papp at 1 h, 10 μg/mL [1, 8]: 5.39 ± 0.364 ×10⁻⁶ cm/s
- Papp at 1 h, 10 μg/mL [3]: 9.68 ± 0.413 ×10⁻⁶ cm/s
- recovery at 1 h, 10 μg/mL [5]: 66 to 79%
- Papp at 1 h, 10 μg/mL [6, 9]: 11.7 ± 0.957 ×10⁻⁶ cm/s
- Papp at 1 h, 10 μg/mL [6, 10]: 10 ± 0.498 ×10⁻⁶ cm/s

Compound: human epidermal growth factor [hEGF]
- Mean max. TEER ± S.E.M. (hBMEC mono-cultures; growth medium with additional hEGF 50 ng/mL for 3 days (only apical), 9.0 × 10^4 cells/cm^2, at 4.15 d): 36.4 (± 0.902) Ωcm^2
- Mean max. TEER ± S.E.M. (hBMEC mono-cultures; growth medium with additional hEGF 100 ng/mL for 3 days (only apical), 9.0 × 10^4 cells/cm^2, at 4.15 d): 40.0 (± 1.94) Ωcm^2

Compound: C[C@@H]1C[C@H]2[C@@H]3CCC4=CC(=O)C=C[C@]4(C)[C@@]3(F)[C@@H](O)C[C@]2(C)[C@@]1(O)C(=O)CO [dexamethasone]
- Mean max. TEER ± S.E.M. (hBMEC mono-cultures; growth medium with dexamethasone 500 nM for 3 days (only apical), 9.0 × 10^4 cells/cm^2, at 4.15 d): 35.9 (± 0.338) Ωcm^2
- Mean max. TEER ± S.E.M. (hBMEC mono-cultures; growth medium with dexamethasone 1000 nM for 3 days (only apical), 9.0 × 10^4 cells/cm^2, at 4.15 d): 38.0 (± 1.26) Ωcm^2

Compound: C[C@]12CCC(=O)C=C1CC[C@@H]1[C@@H]2[C@@H](O)C[C@@]2(C)[C@H]1CC[C@]2(O)C(=O)CO [HC, hydrocortisone]
- Mean max. TEER ± S.E.M. (hBMEC mono-cultures; growth medium with additional HC 500 nM for 3 days (only apical), 4.5 × 10^4 cells/cm^2, at 3.19 d): 43.2 (± 4.27) Ωcm^2
- Mean max. TEER ± S.E.M. (hBMEC mono-cultures; growth medium with additional HC 1500 nM for 3 days (only apical), 4.5 × 10^4 cells/cm^2, at 3.19 d): 40.4 (± 0.646) Ωcm^2
